Results published in PMC7279002, “Novel 3′-Substituted-1′,2′,4′-Oxadiazole Derivatives of 18βH-Glycyrrhetinic Acid and Their O-Acylated Amidoximes: Synthesis and Evaluation of Antitumor and Anti-Inflammatory Potential In Vitro and In Vivo” (International Journal of Molecular Sciences, 2020).

Columns and labels:
murine melanoma B16 = test: MTT cytotoxicity assay, 48 h; type: cell-based; settings: for Selectivity index: B16: IC50 in hFF3 / IC50 in B16; for IC50: Mus musculus, MTT, 48 h
Procedure: (§1) On the first step of the biological evaluation of novel GA derivatives 3a-h, 4a-h, and 5a-h, we analyzed their cytotoxicity in a panel of cultured mammalian cells, including human cervical carcinoma HeLa and KB-3-1, human duodenal carcinoma HuTu-80, human lung adenocarcinoma A549, murine melanoma B16 cell lines, and nontransformed human fibroblasts hFF3. The cells were treated with derivatives for 48 h and cell viability was evaluated by 3-(4, 5-dimethylthiazol-2-yl)-2, 5-diphenyltetrazolium bromide (MTT) assay. Since the studied compounds contain two types of functional groups at position 3-acetoxy- or the hydroxyl-group, 3-acetoxy-GA 1 and GA-Me were used as references. Additionally, hierarchical clustering of cytotoxic data was carried out in order to reveal groups of compounds with similar cytotoxic profiles (Figure 2A).
(§2) Human cervical carcinoma HeLa and KB-3-1 cells, human duodenal carcinoma HuTu-80 cells, and human lung adenocarcinoma A549 cells were obtained from the Russian Culture Collection (Institute of Cytology, RAS, St. Petersburg, Russia). Melanoma B16-F10 (hereafter, melanoma B16) cells were obtained from the Cell Culture Bank of the Blokhin National Medical Oncology Research Center (Moscow, Russia). Nonmalignant fibroblasts hFF3 and RAW264.7 macrophages were kindly provided by Dr. Olga A. Koval (Institute of Chemical Biology and Fundamental Medicine, SB RAS, Novosibirsk, Russia) and Prof. Dmitry Kuprash (Engelhardt Institute of Molecular Biology, RAS, Moscow, Russia), respectively. The cells were cultured in DMEM (Sigma-Aldrich Inc., St. Louis, MO, USA) supplemented with 10% (v/v) heat-inactivated fetal bovine serum (FBS) (BioloT, St. Petersburg, Russia) and antibiotic–antimycotic solution (100 U/mL penicillin, 100 µg/mL streptomycin, 0.25 µg/mL amphotericin). […] The cells were incubated at 37 °C in a humidified 5% CO2-containing air atmosphere (hereafter referred to as standard conditions). GA derivatives were dissolved in DMSO (stock solutions: 10 mM) and stored at −20 °C prior to use.
(§3) Cells were seeded in tetra- or pentaplicates in 96-well plates at a density of 10^4 (tumor cells and […] fibroblasts) or 10^5 (RAW264.7 cells) cells per well. Cells were incubated under standard conditions for 24 h, followed by their treatment with the investigated derivatives (0.5–50 µM) or corresponding concentrations of DMSO (control) for a further 48 h (tumor cells and fibroblasts) or 24 h (RAW264.7 cells). At the end of incubation period, 10 µL of MTT solution was added to the cells (final concentration: 0.5 mg/mL) and plates were incubated for an additional 2 h under standard conditions. Then, the MTT-containing medium was aspirated and formazan crystals formed in living cells were solubilized with 100 µL of DMSO. The absorbance of each well was read at test and reference wavelengths of 570 and 620 nm, respectively, on a Multiscan RC plate reader (Thermo LabSystems, Helsinki, Finland). The IC50 values (the concentration of compounds leading to a decrease of A570 to 50% of A570^control) were calculated by extrapolation of the dose–response curves. […] A heatmap of SI values was constructed by Microsoft Excel 2010.

[1] = system: human cervical carcinoma KB-3-1; test: MTT cytotoxicity assay, 48 h; type: cell-based; settings: for IC50: Homo sapiens, KB 3-1, MTT, 48 h, read-out: IC50, µM Cervix KB-3-1; for Selectivity index: KB-3-1: IC50 in hFF3 / IC50 in KB-3-1
Procedure: as §1, §2, §3

[2] = system: human lung adenocarcinoma A549; test: MTT cytotoxicity assay, 48 h; type: cell-based; settings: for IC50: Homo sapiens, A549, MTT, 48 h; for Selectivity index: A549: IC50 in hFF3 / IC50 in A549
Procedure: as §1, §2, §3

[3] = system: human cervical carcinoma HeLa; test: MTT cytotoxicity assay, 48 h; type: cell-based; settings: for IC50: Homo sapiens, HeLa, MTT, 48 h, read-out: IC50, µM Cervix HeLa; for Selectivity index: HeLa: IC50 in hFF3 / IC50 in HeLa
Procedure: as §1, §2, §3

[4] = system: nontransformed human fibroblasts hFF3; test: MTT cytotoxicity assay, 48 h; type: cell-based; settings: Homo sapiens, HFF-3, read-out: IC50, µM Fibroblast hFF3
Procedure: as §1, §2, §3

[5] = system: human duodenal carcinoma HuTu-80; test: MTT cytotoxicity assay, 48 h; type: cell-based; settings: for IC50: Homo sapiens, HuTu80, MTT, 48 h, read-out: IC50, µM Duodenum HuTu-80; for Selectivity index: HuTu-80: IC50 in hFF3 / IC50 in HuTu-80
Procedure: as §1, §2, §3

| Compound | melting point | Selectivity index: B16 (murine melanoma B16) | IC50 (murine melanoma B16) [µM] | IC50 [1] [µM] | Selectivity index: KB-3-1 [1] | IC50 [2] [µM] | Selectivity index: A549 [2] | IC50 [3] [µM] | Selectivity index: HeLa [3] | IC50 [4] [µM] | IC50 [5] [µM] | Selectivity index: HuTu-80 [5] |
| --- | --- | --- | --- | --- | --- | --- | --- | --- | --- | --- | --- | --- |
| CC(=O)O[C@H]1CC[C@@]2(C)C(CC[C@]3(C)C2C(=O)C=C2[C@@H]4C[C@@](C)(C(=O)O/N=C(/N)c5ccncc5)CC[C@]4(C)CC[C@]23C)C1(C)C (stereo partly shown) [Compound 3h] | 161.3 °C (dec.) | 1.4 | 7.8 ± 1.9 | 7 ± 1.4 | 1.6 | 7.1 ± 1.6 | 1.6 | 7.1 ± 1.4 | 1.6 | 11.1 ± 0.5 | 5.6 ± 0.1 | 2.0 |
| CC(=O)O[C@H]1CC[C@@]2(C)C(CC[C@]3(C)C2C(=O)C=C2[C@@H]4C[C@@](C)(C(=O)O/N=C(/N)c5ccccc5)CC[C@]4(C)CC[C@]23C)C1(C)C (stereo partly shown) [Compound 3e] | 144.6 to 145 °C | 0.4 | 16.4 ± 0.7 | 16 ± 1.4 | 0.5 | 4.9 ± 0.4 | 1.5 | 5.8 ± 0.8 | 1.3 | 7.3 ± 0.3 | 7.5 ± 0.1 | 1.0 |
| CC1(C)C2CC[C@]3(C)C(C(=O)C=C4[C@@H]5C[C@@](C)(c6nc(-c7cccnc7)no6)CC[C@]5(C)CC[C@]43C)[C@@]2(C)CC[C@@H]1O (stereo partly drawn) [Compound 5g, 30-nor-3β-hydroxy-11-oxo-20-(3′-(pyridin-3′′-yl)-1′,2′,4′-oxadiazol-5′-yl)-18βH-olean-12-en] | 231.6 °C (dec.) | – | > 50 | 16.9 ± 1.4 | > 3.0 | > 50 | – | 4.6 ± 0.3 | > 10.9 | > 50 | 4.7 ± 0.2 | > 10.6 |
| CC(=O)O[C@H]1CC[C@@]2(C)C(CC[C@]3(C)C2C(=O)C=C2[C@@H]4C[C@@](C)(C(=O)O/N=C(/N)c5ccccn5)CC[C@]4(C)CC[C@]23C)C1(C)C (stereo partly shown) [Compound 3f] | 165.8 °C (dec.) | 0.3 | 22.5 ± 3.1 | 10.9 ± 2.2 | 0.7 | 7.7 ± 1.8 | 1.0 | 6.4 ± 1 | 1.2 | 7.6 ± 1 | 6.9 ± 0.3 | 1.1 |
| CC(=O)O[C@H]1CC[C@@]2(C)C(CC[C@]3(C)C2C(=O)C=C2[C@@H]4C[C@@](C)(C(=O)O/N=C(/N)C(C)C)CC[C@]4(C)CC[C@]23C)C1(C)C (stereo partly shown) [Compound 3c] | 120.3 °C (dec.) | 0.5 | 5.6 ± 0.2 | 4.9 ± 0.4 | 0.5 | 2.6 ± 0.1 | 1.0 | 3 ± 0.2 | 0.9 | 2.6 ± 0.1 | 2.1 ± 0.2 | 1.2 |
